# Test results reported in the supplement of paper PMC4862054.
# Tested on: BT-474
# Experiment: drug sensitivity score (DSS), CellTiter-Blue viability (DSS (AUC-based score)); higher = stronger viability inhibition; extreme values may be limits of the assay
# Details: incubation time: 72 h
# Procedure: (§1)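 DSRT with the CellTiter-Blue (resazurin reduction) viability readout, fluorescence 560/590 nm, 72 h incubation. Plates were normalised to DMSO and benzethonium chloride controls. DSS is computed from the area under the fitted dose-response curve (5 or 9 concentrations).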
row,SMILES,drug sensitivity score
1,Cc1cc2c(F)c(Oc3ncnn4cc(OC[C@@H](C)O)c(C)c34)ccc2[nH]1 [Brivanib],0
2,CC(C)C[C@H](NC(=O)[C@H](CCc1ccccc1)NC(=O)CN1CCOCC1)C(=O)N[C@@H](Cc1ccccc1)C(=O)N[C@@H](CC(C)C)C(=O)[C@@]1(C)CO1 [Carfilzomib],16.1
3,Nc1nc(Cl)nc2c1ncn2[C@@H]1O[C@H](CO)[C@@H](O)[C@@H]1F [Clofarabine],0
4,C[C@@H]1C[C@H]2[C@@H]3CCC4=CC(=O)C=C[C@]4(C)[C@@]3(F)[C@@H](O)C[C@]2(C)[C@@]1(O)C(=O)CO [Dexamethasone],0
5,CC(C)C(=O)Nc1ccc([N+](=O)[O-])c(C(F)(F)F)c1 [Flutamide],0
6,COc1cc2c(Oc3ccc(NC(=O)C4(C(=O)Nc5ccc(F)cc5)CC4)cc3F)ccnc2cc1OCCCN1CCOCC1 [Foretinib],0
7,O=NN(CCCl)C(=O)NC1CCCCC1 [Lomustine],0
8,O=C(O)CC[C@H]1CC[C@@](c2cc(F)ccc2F)(S(=O)(=O)c2ccc(Cl)cc2)CC1 [MK-0752],0
9,NC1(c2ccc(-c3nc4ccn5c(=O)[nH]nc5c4cc3-c3ccccc3)cc2)CCC1 [MK-2206],3.69
10,NC(=O)c1cccc2cn(-c3ccc([C@@H]4CCCNC4)cc3)nc12 [MK-4827],0
11,N[C@@H](Cc1ccc(N(CCCl)CCCl)cc1)C(=O)O [Melphalan],0
12,O=C(c1cc(Cc2n[nH]c(=O)c3ccccc23)ccc1F)N1CCN(C(=O)C2CC2)CC1 [Olaparib],0

# Tested on: BT-549
# Experiment: as above
# Details: incubation time: 72 h
# Procedure: as §1
row,SMILES,drug sensitivity score
1,Cc1cc2c(F)c(Oc3ncnn4cc(OC[C@@H](C)O)c(C)c34)ccc2[nH]1 [Brivanib],0
2,CC(C)C[C@H](NC(=O)[C@H](CCc1ccccc1)NC(=O)CN1CCOCC1)C(=O)N[C@@H](Cc1ccccc1)C(=O)N[C@@H](CC(C)C)C(=O)[C@@]1(C)CO1 [Carfilzomib],29.2
3,Nc1nc(Cl)nc2c1ncn2[C@@H]1O[C@H](CO)[C@@H](O)[C@@H]1F [Clofarabine],10.6
4,C[C@@H]1C[C@H]2[C@@H]3CCC4=CC(=O)C=C[C@]4(C)[C@@]3(F)[C@@H](O)C[C@]2(C)[C@@]1(O)C(=O)CO [Dexamethasone],0
5,CC(C)C(=O)Nc1ccc([N+](=O)[O-])c(C(F)(F)F)c1 [Flutamide],0
6,COc1cc2c(Oc3ccc(NC(=O)C4(C(=O)Nc5ccc(F)cc5)CC4)cc3F)ccnc2cc1OCCCN1CCOCC1 [Foretinib],0
7,O=NN(CCCl)C(=O)NC1CCCCC1 [Lomustine],0
8,O=C(O)CC[C@H]1CC[C@@](c2cc(F)ccc2F)(S(=O)(=O)c2ccc(Cl)cc2)CC1 [MK-0752],0
9,NC1(c2ccc(-c3nc4ccn5c(=O)[nH]nc5c4cc3-c3ccccc3)cc2)CCC1 [MK-2206],0
10,NC(=O)c1cccc2cn(-c3ccc([C@@H]4CCCNC4)cc3)nc12 [MK-4827],0
11,N[C@@H](Cc1ccc(N(CCCl)CCCl)cc1)C(=O)O [Melphalan],0
12,O=C(c1cc(Cc2n[nH]c(=O)c3ccccc23)ccc1F)N1CCN(C(=O)C2CC2)CC1 [Olaparib],0

# Tested on: CAL-120
# Experiment: as above
# Details: incubation time: 72 h
# Procedure: as §1
row,SMILES,drug sensitivity score
1,Cc1cc2c(F)c(Oc3ncnn4cc(OC[C@@H](C)O)c(C)c34)ccc2[nH]1 [Brivanib],0
2,CC(C)C[C@H](NC(=O)[C@H](CCc1ccccc1)NC(=O)CN1CCOCC1)C(=O)N[C@@H](Cc1ccccc1)C(=O)N[C@@H](CC(C)C)C(=O)[C@@]1(C)CO1 [Carfilzomib],23.9
3,Nc1nc(Cl)nc2c1ncn2[C@@H]1O[C@H](CO)[C@@H](O)[C@@H]1F [Clofarabine],11.6
4,C[C@@H]1C[C@H]2[C@@H]3CCC4=CC(=O)C=C[C@]4(C)[C@@]3(F)[C@@H](O)C[C@]2(C)[C@@]1(O)C(=O)CO [Dexamethasone],0
5,CC(C)C(=O)Nc1ccc([N+](=O)[O-])c(C(F)(F)F)c1 [Flutamide],0
6,COc1cc2c(Oc3ccc(NC(=O)C4(C(=O)Nc5ccc(F)cc5)CC4)cc3F)ccnc2cc1OCCCN1CCOCC1 [Foretinib],1.14
7,O=NN(CCCl)C(=O)NC1CCCCC1 [Lomustine],0
8,O=C(O)CC[C@H]1CC[C@@](c2cc(F)ccc2F)(S(=O)(=O)c2ccc(Cl)cc2)CC1 [MK-0752],0
9,NC1(c2ccc(-c3nc4ccn5c(=O)[nH]nc5c4cc3-c3ccccc3)cc2)CCC1 [MK-2206],0
10,NC(=O)c1cccc2cn(-c3ccc([C@@H]4CCCNC4)cc3)nc12 [MK-4827],0
11,N[C@@H](Cc1ccc(N(CCCl)CCCl)cc1)C(=O)O [Melphalan],0
12,O=C(c1cc(Cc2n[nH]c(=O)c3ccccc23)ccc1F)N1CCN(C(=O)C2CC2)CC1 [Olaparib],0

# Tested on: CAL-148
# Experiment: as above
# Details: incubation time: 72 h
# Procedure: as §1
row,SMILES,drug sensitivity score
1,Cc1cc2c(F)c(Oc3ncnn4cc(OC[C@@H](C)O)c(C)c34)ccc2[nH]1 [Brivanib],0
2,CC(C)C[C@H](NC(=O)[C@H](CCc1ccccc1)NC(=O)CN1CCOCC1)C(=O)N[C@@H](Cc1ccccc1)C(=O)N[C@@H](CC(C)C)C(=O)[C@@]1(C)CO1 [Carfilzomib],18.8
3,Nc1nc(Cl)nc2c1ncn2[C@@H]1O[C@H](CO)[C@@H](O)[C@@H]1F [Clofarabine],11.3
4,C[C@@H]1C[C@H]2[C@@H]3CCC4=CC(=O)C=C[C@]4(C)[C@@]3(F)[C@@H](O)C[C@]2(C)[C@@]1(O)C(=O)CO [Dexamethasone],0
5,CC(C)C(=O)Nc1ccc([N+](=O)[O-])c(C(F)(F)F)c1 [Flutamide],0
6,COc1cc2c(Oc3ccc(NC(=O)C4(C(=O)Nc5ccc(F)cc5)CC4)cc3F)ccnc2cc1OCCCN1CCOCC1 [Foretinib],2.11
7,O=NN(CCCl)C(=O)NC1CCCCC1 [Lomustine],0
8,O=C(O)CC[C@H]1CC[C@@](c2cc(F)ccc2F)(S(=O)(=O)c2ccc(Cl)cc2)CC1 [MK-0752],0
9,NC1(c2ccc(-c3nc4ccn5c(=O)[nH]nc5c4cc3-c3ccccc3)cc2)CCC1 [MK-2206],1.65
10,NC(=O)c1cccc2cn(-c3ccc([C@@H]4CCCNC4)cc3)nc12 [MK-4827],2.86
11,N[C@@H](Cc1ccc(N(CCCl)CCCl)cc1)C(=O)O [Melphalan],0
12,O=C(c1cc(Cc2n[nH]c(=O)c3ccccc23)ccc1F)N1CCN(C(=O)C2CC2)CC1 [Olaparib],0

# Tested on: CAL-85-1
# Experiment: as above
# Details: incubation time: 72 h
# Procedure: as §1
row,SMILES,drug sensitivity score
1,Cc1cc2c(F)c(Oc3ncnn4cc(OC[C@@H](C)O)c(C)c34)ccc2[nH]1 [Brivanib],0
2,CC(C)C[C@H](NC(=O)[C@H](CCc1ccccc1)NC(=O)CN1CCOCC1)C(=O)N[C@@H](Cc1ccccc1)C(=O)N[C@@H](CC(C)C)C(=O)[C@@]1(C)CO1 [Carfilzomib],22.2
3,Nc1nc(Cl)nc2c1ncn2[C@@H]1O[C@H](CO)[C@@H](O)[C@@H]1F [Clofarabine],10.1
4,C[C@@H]1C[C@H]2[C@@H]3CCC4=CC(=O)C=C[C@]4(C)[C@@]3(F)[C@@H](O)C[C@]2(C)[C@@]1(O)C(=O)CO [Dexamethasone],0
5,CC(C)C(=O)Nc1ccc([N+](=O)[O-])c(C(F)(F)F)c1 [Flutamide],0
6,COc1cc2c(Oc3ccc(NC(=O)C4(C(=O)Nc5ccc(F)cc5)CC4)cc3F)ccnc2cc1OCCCN1CCOCC1 [Foretinib],0
7,O=NN(CCCl)C(=O)NC1CCCCC1 [Lomustine],0
8,O=C(O)CC[C@H]1CC[C@@](c2cc(F)ccc2F)(S(=O)(=O)c2ccc(Cl)cc2)CC1 [MK-0752],0
9,NC1(c2ccc(-c3nc4ccn5c(=O)[nH]nc5c4cc3-c3ccccc3)cc2)CCC1 [MK-2206],0
10,NC(=O)c1cccc2cn(-c3ccc([C@@H]4CCCNC4)cc3)nc12 [MK-4827],0
11,N[C@@H](Cc1ccc(N(CCCl)CCCl)cc1)C(=O)O [Melphalan],0
12,O=C(c1cc(Cc2n[nH]c(=O)c3ccccc23)ccc1F)N1CCN(C(=O)C2CC2)CC1 [Olaparib],0

# Tested on: HCC1599
# Experiment: as above
# Details: incubation time: 72 h
# Procedure: as §1
row,SMILES,drug sensitivity score
1,Cc1cc2c(F)c(Oc3ncnn4cc(OC[C@@H](C)O)c(C)c34)ccc2[nH]1 [Brivanib],0
2,CC(C)C[C@H](NC(=O)[C@H](CCc1ccccc1)NC(=O)CN1CCOCC1)C(=O)N[C@@H](Cc1ccccc1)C(=O)N[C@@H](CC(C)C)C(=O)[C@@]1(C)CO1 [Carfilzomib],7.66
3,Nc1nc(Cl)nc2c1ncn2[C@@H]1O[C@H](CO)[C@@H](O)[C@@H]1F [Clofarabine],2.01
4,C[C@@H]1C[C@H]2[C@@H]3CCC4=CC(=O)C=C[C@]4(C)[C@@]3(F)[C@@H](O)C[C@]2(C)[C@@]1(O)C(=O)CO [Dexamethasone],0
5,CC(C)C(=O)Nc1ccc([N+](=O)[O-])c(C(F)(F)F)c1 [Flutamide],0
6,COc1cc2c(Oc3ccc(NC(=O)C4(C(=O)Nc5ccc(F)cc5)CC4)cc3F)ccnc2cc1OCCCN1CCOCC1 [Foretinib],0
7,O=NN(CCCl)C(=O)NC1CCCCC1 [Lomustine],0
8,O=C(O)CC[C@H]1CC[C@@](c2cc(F)ccc2F)(S(=O)(=O)c2ccc(Cl)cc2)CC1 [MK-0752],2.93
9,NC1(c2ccc(-c3nc4ccn5c(=O)[nH]nc5c4cc3-c3ccccc3)cc2)CCC1 [MK-2206],0
10,NC(=O)c1cccc2cn(-c3ccc([C@@H]4CCCNC4)cc3)nc12 [MK-4827],0
11,N[C@@H](Cc1ccc(N(CCCl)CCCl)cc1)C(=O)O [Melphalan],0
12,O=C(c1cc(Cc2n[nH]c(=O)c3ccccc23)ccc1F)N1CCN(C(=O)C2CC2)CC1 [Olaparib],0

# Tested on: HCC1937
# Experiment: as above
# Details: incubation time: 72 h
# Procedure: as §1
row,SMILES,drug sensitivity score
1,Cc1cc2c(F)c(Oc3ncnn4cc(OC[C@@H](C)O)c(C)c34)ccc2[nH]1 [Brivanib],0
2,CC(C)C[C@H](NC(=O)[C@H](CCc1ccccc1)NC(=O)CN1CCOCC1)C(=O)N[C@@H](Cc1ccccc1)C(=O)N[C@@H](CC(C)C)C(=O)[C@@]1(C)CO1 [Carfilzomib],27
3,Nc1nc(Cl)nc2c1ncn2[C@@H]1O[C@H](CO)[C@@H](O)[C@@H]1F [Clofarabine],15.5
4,C[C@@H]1C[C@H]2[C@@H]3CCC4=CC(=O)C=C[C@]4(C)[C@@]3(F)[C@@H](O)C[C@]2(C)[C@@]1(O)C(=O)CO [Dexamethasone],0
5,CC(C)C(=O)Nc1ccc([N+](=O)[O-])c(C(F)(F)F)c1 [Flutamide],0
